Consider six compounds from patent US5972998A, “Triptolide derivatives useful in the treatment of autoimmune diseases” (priority 1998, dated 1999).

The conditions of data set [1]: administered in conjunction with another immunosuppressive agent; WO 94/26265; cited from earlier work.
Data set [2] concerns Jurkat E6-1 cell line (ATCC), a human leukemic T cell line or lymphocytes prepared from fresh human blood. The experiment in a line: Cell viability (mitochondrial enzyme assay, MTT). Type of data set: cell-based. The following applies: after 16-24 hours incubation. The procedure:
(§1) Jurkat E6-1 cell line (ATCC), a human leukemic T cell line or lymphocytes prepared from fresh human blood, are grown in complete culture medium consisting of RPMI-1640 (Mediatech) supplemented with 10% v/v fetal bovine serum (HyClone, Logen, Vt.), penicillin (100 units/mL), streptomycin ([…]), and 2 mM L-glutamine (GIBCO, Grand Island, N.Y.). The cells are grown to a concentration of between 1.2 to 1.8×10^6 cells/mL before use. The cells are then centrifuged at low speed and resuspended to a concentration of 1.25×10^6 cells/mL in fresh medium.
(§2) The compounds to be tested are dissolved in DMSO, and water is added to make a 50% DMSO/water solution. The compounds are then diluted in sterile water such that the DMSO concentrations are less then 0.05%. The cells at a concentration of 1.25×10^6 cells/mL are stimulated with phytohemagglutinin 10 μg/mL (PHA) and 10^-8 M phorbol ester (12-O-tetradecanoylphorbol 13-acetate: TPA), (Sigma, St. Louis, Mo.). The compounds are then added and the cells are plated in flat-bottom tissue culture plates (Falcon, Lincoln Park, N.J.), with 250,000 cells/well. Plates are then incubated at 37° C. under an atmosphere of 5% CO2.
(§3) After incubation (16-24 hours), the cells are assayed for IL-2 production and cell viability (MTT). IL-2 production is assayed utilizing a solid phase ELISA immunoassay, sold in kit form by R&D Systems, Inc., Minneapolis, Minn.
Cell viability is measured by the use of a mitochondrial enzyme assay. After removal of the supernatant for the IL-2 assay, Cell Titer 96 (a commercial solution of MTT available from Promega, Madison, Wis.) is added to the plates and incubated for 4 hours at 37° C. A solubilization solution is then added and incubated overnight. The plates are then read on an ELISA plate reader at a wavelength of 570 nm. Table II presents the results for the lnterleukin-2 assay, the cell viability assay and the ratio of cell viability/IL-2 inhibition.

The next data set concerns IL-2. The experiment in a line: Interleukin-2 assay (IL-2 production, ELISA, PHA/TPA-stimulated cells). Type of data set: cell-based. The note with it: Jurkat E6-1 cells or human blood lymphocytes, PHA 10 μg/mL + TPA 10^-8 M, 16-24 hours. As for the experimental part:
as §1, §2, §3
(In an ELISA, binding on a coated surface is turned into a signal by an enzyme label.)

In data set [3] the test system is adjuvant-induced arthritis. The experiment in a line: Anti-inflammatory activity in the rat model of adjuvant-induced arthritis. The format is in vivo, rat (male Wistar-Lewis). The following applies: 12 consecutive days, day 18. The procedure:
Anti-inflammatory Activity in the Rat Model of Adjuvant-induced Arthritis
(§4) Following generally the procedure of Pearson and Wood, Arth. Rheum., 2, 44 (1959), the anti-inflammatory activity of the following compounds was determined in a rat model of adjuvant-induced arthritis. Male Wistar-Lewisrats (Mollegaard, Breeding Centre Ltd, BIBY, DK 4623 LI, SKENSVED, P.P. Box 28, DK) with a body weight between 160 g and 200 g are used. Freund's adjuvant (0.1 mL, 6 mg Mycobacterium smegmatis suspension per mL in heavy white paraffin oil, Merck/Darmstadt) was injected into the base of the tail. Between day 10 and day 14 of the test, immunopathological processes lead to chronic inflammation, especially in the form of arthritic and periarthritic symptoms in all parts of the body. The animals received standardized food Altromin-R (Altrogge, Lage) and had free access to water. The compounds were administered i.p. (suspension in a carboxymethyl cellulose solution in an injection volume of 0.5 mL/100 g body weight) on 12 consecutive days, starting with the day of the adjuvant injection. On day 1 and day 18 of the study, the volume to of both hind paws and the body weight were recorded, and in addition on day 18 the arthritis index. Cyclosporin A and Prednisolone were used as standard compounds. In addition, table IV presents the percent change in body weight (weight gain) between day 1 and day 21 of the above test.

The format of data set [4] is in vivo, rat (male Wistar-Lewis). The note with it: weight gain between day 1 and day 21. As for the experimental part:
as §4

A further data set relates to lymphocyte. The note with it: Yang, et al., 1992 and 1994; cited from earlier work.
The subject of a further data set is skin allograft rejection. The note with it: Yang, et al., 1992 and 1994; cited from earlier work.

Converted amounts (≈) assume the structure as drawn. Read-outs that look alike come from different tables or passages of the source. A value given as a limit tells only on which side of the number the result lay.

With `C[C@@H](CO)[C@]12O[C@H]1[C@@H]1O[C@]13[C@]1(O[C@H]1C[C@H]1C4=C(CC[C@@]13C)C(=O)OC4)[C@@H]2O` [16-hydroxytriptolide, 16-Hydroxytriptolide], the “immunosuppressive activity relative to the sum of the effects of either agent alone” value in data set [1] is “increase in immunosuppressive activity relative to the sum of the effects”.

Usually % Inhibition stands for how much of the control response was suppressed. Consider `CC(C)[C@]1(O)C=C[C@@]2(O)[C@@]3(C)CCC4=C(COC4=O)C3CC[C@@]2(O)[C@@H]1O` (stereo partly drawn) [Example 2, [5aR-(5aα,6α,7β,9aα,9bα)]-3b,4,5,5a,6,7,9a,9b,10,11-decahydro-5a,6,7,9a-tetrahydroxy-9b-methyl-7-(1-methylethyl)-phenanthro[1,2-c]furan-1(3H)-one], for which, in data set [2], the “IC50 /MTT” value was 90 ng/mL (≈ 0.247 µM). The “IC50 /IL-2” value with IL-2 is recorded as 14 ng/mL. Also, the “% Inhibition” value in data set [3] (2 mg/kg/day i.p.) is 83%; in data set [3] (4 mg/kg/day i.p.) it was 72%. Also, the “% Change in Body Weight” value in data set [4] (2 mg/kg/day i.p.) amounted to 18.3%; in data set [4] (4 mg/kg/day i.p.) it was 24.1%.

For the compound `CC(C)[C@]12O[C@H]1[C@@H]1O[C@]13[C@]1(O[C@H]1C[C@H]1C4=C(CC[C@@]13C)C(=O)OC4)[C@@H]2O` [Triptolide, triptolide], the suppress lymphocyte proliferation entry with lymphocyte is given as “suppress lymphocyte proliferation”. Besides, the “suppress skin allograft rejection” value in the data set on skin allograft rejection is “suppress lymphocyte proliferation and skin allograft rejection”. Besides, the “IC50 /MTT” value in data set [2] came to 5 ng/mL (≈ 0.0139 µM).

Consider Cyclosporin A [reference compound], for which, in data set [3] (10 mg/kg/day i.p.), the “% Inhibition” value was 100%. Moreover, in data set [4] (10 mg/kg/day i.p.), the “% Change in Body Weight” value came to 27.2%.

In the case of “[5R-(5α,5aβ,6β,7α,9aβ,9bβ)]-3b,4,5,5a,6,7,9a,10,11-decahydro-5a,6,9a-trihydroxy-9b-methyl-7-(1-methylethyl)-5,7-epoxyphenanthro[1,2-c]furan-1(3H)-one [Example 3]”, the “IC50 /MTT” value in data set [2] is > 1,000 ng/mL. Further, the “IC50 /IL-2” value in the data set on IL-2 is 500 ng/mL.

As to “[5aS-(5aα,5bα,8β,9α,9aR*,10aβ)]-4,5a,5b,8,9,10a,11,11a-octahydro-5b,8,9-trihydroxy-5a-methyl-8-(1-methylethyl)-1H-oxireno[8a,9]phenanthro[1,2-c]furan-3(5)-one [Example 1]”, in data set [2], the “IC50 /MTT” value is given as > 1,000 ng/mL. Also, the “IC50 /IL-2” value in the data set on IL-2 is given as 1,000 ng/mL.
